Values quoted from earlier work as cited in US8309490B2, “Low VOC and stable plant growth regulator liquid and granule compositions” (Valent BioSciences Corporation, priority 2009, dated 2012).

Details: at 25° C.

For `O=C(Nc1ccccc1)Nc1ccnc(Cl)c1` [CPPU, forchlorfenuron], the water solubility is given as 39 ppm.
